Several values for one entry are separate records, joined by “and”; a condition that tells them apart may be missing. Equal values may be shown once. Inconclusive results and toxic doses are left out.
System: BDF1 mice, P388 leukemia ip, median survival T/C
Experiment: NCI In Vivo Anticancer Drug Screen. Data for tumor model P388 Leukemia (intraperitoneal) in B6D2F1 (BDF1) mice
Conditions: endpoint: median survival time, higher = longer survival
Summary of the method: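 T/C = treated-group survival ÷ vehicle-control survival; tumour transplanted into mice before dosing.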

[1] = dose: 50.0 mg/kg/injection, schedule: Q01DX009 (ip), vehicle: saline with Tween-80
[2] = dose: 100.0 mg/kg/injection, schedule: Q01DX009 (ip), vehicle: saline with Tween-80
[3] = dose: 200.0 mg/kg/injection, schedule: Q01DX009 (ip), vehicle: saline with Tween-80
[4] = dose: 100.0 mg/kg/injection, schedule: Q04DX003 (ip), vehicle: saline with Tween-80
[5] = dose: 200.0 mg/kg/injection, schedule: Q04DX003 (ip), vehicle: saline with Tween-80
[6] = dose: 400.0 mg/kg/injection, schedule: Q04DX003 (ip), vehicle: saline with Tween-80

SMILES: Cc1ccc2c(c1)=N/C(=N\c1nc(O)c(O)[nH]1)N=2
- T/C (dose: 60.0 mg/kg/injection, schedule: Q01DX009 (ip), vehicle: Klucel (hydroxypropylcellulose) (HPC)): 98 % of control
- T/C (dose: 66.0 mg/kg/injection, schedule: Q01DX009 (ip), vehicle: Klucel (hydroxypropylcellulose) (HPC)): 106 % of control
- T/C (dose: 100.0 mg/kg/injection, schedule: Q01DX009 (ip), vehicle: Klucel (hydroxypropylcellulose) (HPC)): 103 % of control and 118 % of control
- T/C (dose: 100.0 mg/kg/injection, schedule: Q04DX003 (ip), vehicle: Klucel (hydroxypropylcellulose) (HPC)): 104 % of control
- T/C (dose: 140.0 mg/kg/injection, schedule: Q01DX009 (ip), vehicle: Klucel (hydroxypropylcellulose) (HPC)): 97 % of control
- T/C (dose: 150.0 mg/kg/injection, schedule: Q01DX009 (ip), vehicle: Klucel (hydroxypropylcellulose) (HPC)): 168 % of control
- T/C (dose: 200.0 mg/kg/injection, schedule: Q01DX009 (ip), vehicle: Klucel (hydroxypropylcellulose) (HPC)): 116 % of control
- T/C (dose: 200.0 mg/kg/injection, schedule: Q04DX003 (ip), vehicle: Klucel (hydroxypropylcellulose) (HPC)): 100 % of control
- T/C (dose: 400.0 mg/kg/injection, schedule: Q01DX009 (ip), vehicle: Klucel (hydroxypropylcellulose) (HPC)): 111 % of control
- T/C (dose: 400.0 mg/kg/injection, schedule: Q04DX003 (ip), vehicle: Klucel (hydroxypropylcellulose) (HPC)): 95 % of control

SMILES: O=C(Nc1cccc(Cl)c1)ON1CCCCC1
- T/C [1]: 106 % of control
- T/C [2]: 97 % of control
- T/C [3]: 100 % of control

SMILES: COC(=O)CCc1ccc(NP(=O)(N2CC2)N2CC2)cc1
- T/C (dose: 66.0 mg/kg/injection, schedule: Q01DX009 (ip), vehicle: saline with Tween-80): 177 % of control
- T/C (dose: 300.0 mg/kg/injection, schedule: Q04DX003 (ip), vehicle: saline with Tween-80): 154 % of control

SMILES: c1ccc(CCSc2ccccc2)cc1
- T/C [4]: 113 % of control
- T/C [5]: 109 % of control
- T/C [6]: 118 % of control

SMILES: CCOc1cc(/C=N\Nc2nncn2N)ccc1N(CCCl)CCCl
- T/C (dose: 0.8 mg/kg/injection, schedule: Q04DX003 (ip), vehicle: saline with Tween-80): 113 % of control
- T/C (dose: 3.0 mg/kg/injection, schedule: Q04DX003 (ip), vehicle: saline with Tween-80): 154 % of control
- T/C (dose: 5.0 mg/kg/injection, schedule: Q04DX003 (ip), vehicle: saline with Tween-80): 169 % of control
- T/C (dose: 8.0 mg/kg/injection, schedule: Q04DX003 (ip), vehicle: saline with Tween-80): 165 % of control
- T/C (dose: 10.0 mg/kg/injection, schedule: Q04DX003 (ip), vehicle: saline with Tween-80): 210 % of control
- T/C (dose: 12.0 mg/kg/injection, schedule: Q04DX003 (ip), vehicle: saline with Tween-80): 203 % of control
- T/C (dose: 18.0 mg/kg/injection, schedule: Q04DX003 (ip), vehicle: saline with Tween-80): 278 % of control and 154 % of control
- T/C (dose: 20.0 mg/kg/injection, schedule: Q04DX003 (ip), vehicle: saline with Tween-80): 275 % of control
- T/C (dose: 26.0 mg/kg/injection, schedule: Q04DX003 (ip), vehicle: saline with Tween-80): 300 % of control and 163 % of control
- T/C (dose: 40.0 mg/kg/injection, schedule: Q04DX003 (ip), vehicle: saline with Tween-80): 300 % of control and 105 % of control and 213 % of control

SMILES: CCNc1ncc([N+](=O)[O-])c(Nc2ccccc2)n1
- T/C [1]: 103 % of control
- T/C [2]: 103 % of control
- T/C [3]: 88 % of control

SMILES: OC12CCCCC1Cc1cc3c(cc1O2)CC1CCCCC1(O)O3 (stereo not given)
- T/C [1]: 100 % of control
- T/C [2]: 93 % of control
- T/C [3]: 96 % of control

SMILES: CCOC(=O)C1CSCC1=O (stereo not given)
- T/C (dose: 12.5 mg/kg/injection, schedule: Q01DX009 (ip), vehicle: water): 113 % of control
- T/C (dose: 25.0 mg/kg/injection, schedule: Q01DX009 (ip), vehicle: water): 113 % of control
- T/C (dose: 50.0 mg/kg/injection, schedule: Q01DX009 (ip), vehicle: water): 98 % of control
- T/C (dose: 100.0 mg/kg/injection, schedule: Q01DX009 (ip), vehicle: water): 104 % of control
- T/C (dose: 200.0 mg/kg/injection, schedule: Q01DX009 (ip), vehicle: water): 95 % of control
- T/C (dose: 200.0 mg/kg/injection, schedule: Q04DX003 (ip), vehicle: water): 101 % of control
- T/C (dose: 300.0 mg/kg/injection, schedule: Q04DX003 (ip), vehicle: water): 117 % of control
- T/C (dose: 400.0 mg/kg/injection, schedule: Q01DX009 (ip), vehicle: water): 101 % of control
- T/C (dose: 400.0 mg/kg/injection, schedule: Q04DX003 (ip), vehicle: water): 106 % of control

SMILES: Nc1nc(N)c2nc(CNc3ccc(C(=O)NC(CCC(=O)O)C(=O)O)cc3)cnc2n1 (stereo not given)
- T/C (dose: 0.03 mg/kg/injection, schedule: Q01DX010 (ip), vehicle: other): 90 % of control and 104 % of control
- T/C (dose: 0.05 mg/kg/injection, schedule: Q01DX010 (ip), vehicle: other): 109 % of control and 115 % of control
- T/C (dose: 0.1 mg/kg/injection, schedule: Q01DX010 (ip), vehicle: other): 118 % of control
- T/C (dose: 0.2 mg/kg/injection, schedule: Q01DX010 (ip), vehicle: other): 163 % of control and 175 % of control

SMILES: C=CCOC(=O)c1ccccc1N
- T/C [2]: 118 % of control
- T/C [4]: 110 % of control
- T/C [3]: 118 % of control
- T/C [5]: 115 % of control
- T/C [6]: 110 % of control

SMILES: C=CCCCCCCCCC(=O)NCc1nc2ccccc2[nH]1
- T/C [2]: 100 % of control
- T/C [3]: 109 % of control
- T/C (dose: 400.0 mg/kg/injection, schedule: Q01DX009 (ip), vehicle: saline with Tween-80): 95 % of control

Source: PubChem BioAssay AID328 (DTP/NCI, 2004)
